Patent US8877748B2, “Heterocyclic fused anthraquinone derivatives, manufacturing method and pharmaceutical composition using thereof” (National Defense Medical Center, priority 2012, dated 2014)

What was measured:
[1] = system: PC-3 prostate cancer cell line; test: SRB assay cell viability, PC-3 prostate cancer cell line; assay type: cell-based, human; conditions: Homo sapiens, PC-3 prostate cancer cell line, Table II prints no unit, μM printed, read-out: SRB assay: 50% inhibition of cancer cell proliferation of sample concentration (IC50) of PC-3 prostate cancer cell line
HL-60, TB = test: NCI one-dose screening, leukemia HL-60, TB; assay type: cell-based, human; conditions: 10 μM
MOLT-4 = test: NCI one-dose screening, leukemia MOLT-4; assay type: cell-based, human; conditions: 10 μM
SR = test: NCI one-dose screening, leukemia SR; assay type: cell-based, human; conditions: 10 μM
PRMI-8226 cell line = test: NCI one-dose screening, leukemia PRMI-8226; assay type: cell-based, human; conditions: 10 μM
K562cell line = test: NCI one-dose screening, leukemia K562; assay type: cell-based, human; conditions: 10 μM
HOP-62 = test: NCI one-dose screening, non-small cell lung cancer HOP-62; assay type: cell-based, human; conditions: 10 μM
NCI-H226 = test: NCI one-dose screening, non-small cell lung cancer NCI-H226; assay type: cell-based, human; conditions: 10 μM
NCI-H23 = test: NCI one-dose screening, non-small cell lung cancer NCI-H23; assay type: cell-based, human; conditions: 10 μM
NCI-H322M = test: NCI one-dose screening, non-small cell lung cancer NCI-H322M; assay type: cell-based, human; conditions: 10 μM; Non-small cell lung cancer
NCI-H460 = test: NCI one-dose screening, non-small cell lung cancer NCI-H460; assay type: cell-based, human; conditions: 10 μM
NCI-H522 = test: NCI one-dose screening, non-small cell lung cancer NCI-H522; assay type: cell-based, human; conditions: 10 μM
A549/ATCC = test: NCI one-dose screening, non-small cell lung cancer A549/ATCC; assay type: cell-based, human; conditions: 10 μM
COLO 205 = test: NCI one-dose screening, colon cancer COLO 205; assay type: cell-based, human; conditions: 10 μM
HCC-2998 = test: NCI one-dose screening, colon cancer HCC-2998; assay type: cell-based, human; conditions: 10 μM
HCT-116 = test: NCI one-dose screening, colon cancer HCT-116; assay type: cell-based, human; conditions: 10 μM
HCT-15 = test: NCI one-dose screening, colon cancer HCT-15; assay type: cell-based, human; conditions: 10 μM
KM12 = test: NCI one-dose screening, colon cancer KM12; assay type: cell-based, human; conditions: 10 μM
HT29 = test: NCI one-dose screening, colon cancer HT29; assay type: cell-based, human; conditions: 10 μM
SF-268 = test: NCI one-dose screening, CNS cancer SF-268; assay type: cell-based, human; conditions: 10 μM
SF-539 = test: NCI one-dose screening, CNS cancer SF-539; assay type: cell-based, human; conditions: 10 μM
SNB-19 = test: NCI one-dose screening, CNS cancer SNB-19; assay type: cell-based, human; conditions: 10 μM
SNB-75 = test: NCI one-dose screening, CNS cancer SNB-75; assay type: cell-based, human; conditions: 10 μM
U251 = test: NCI one-dose screening, CNS cancer U251; assay type: cell-based, human; conditions: 10 μM
LOX IMVI = test: NCI one-dose screening, melanoma LOX IMVI; assay type: cell-based, human; conditions: 10 μM
MALME-3M = test: NCI one-dose screening, melanoma MALME-3M; assay type: cell-based, human; conditions: 10 μM
M14 = test: NCI one-dose screening, melanoma M14; assay type: cell-based, human; conditions: 10 μM
UACC-62 = test: NCI one-dose screening, melanoma UACC-62; assay type: cell-based, human; conditions: 10 μM
UACC-257 = test: NCI one-dose screening, melanoma UACC-257; assay type: cell-based, human; conditions: 10 μM
SK-MEL-2 = test: NCI one-dose screening, melanoma SK-MEL-2; assay type: cell-based, human; conditions: 10 μM
SK-MEL-28 = test: NCI one-dose screening, melanoma SK-MEL-28; assay type: cell-based, human; conditions: 10 μM
SK-MEL-5 = test: NCI one-dose screening, melanoma SK-MEL-5; assay type: cell-based, human; conditions: 10 μM
IGROV1 = test: NCI one-dose screening, ovarian cancer IGROV1; assay type: cell-based, human; conditions: 10 μM
OVCAR-3 = test: NCI one-dose screening, ovarian cancer OVCAR-3; assay type: cell-based, human; conditions: 10 μM
OVCAR-4 = test: NCI one-dose screening, ovarian cancer OVCAR-4; assay type: cell-based, human; conditions: 10 μM
OVCAR-5 = test: NCI one-dose screening, ovarian cancer OVCAR-5; assay type: cell-based, human; conditions: 10 μM
OVCAR-8 = test: NCI one-dose screening, ovarian cancer OVCAR-8; assay type: cell-based, human; conditions: 10 μM
786-O = test: NCI one-dose screening, renal cancer 786-O; assay type: cell-based, human; conditions: 10 μM
ACHN = test: NCI one-dose screening, renal cancer ACHN; assay type: cell-based, human; conditions: 10 μM
SN12C = test: NCI one-dose screening, renal cancer SN12C; assay type: cell-based, human; conditions: 10 μM
TK-10 = test: NCI one-dose screening, renal cancer TK-10; assay type: cell-based, human; conditions: 10 μM
RXF, 393 = test: NCI one-dose screening, renal cancer RXF, 393; assay type: cell-based, human; conditions: 10 μM
NCl/ADR-RES = test: NCI one-dose screening, breast cancer NCl/ADR-RES; assay type: cell-based, human; conditions: 10 μM; listed under Ovarian cancer
CCRF-CEM = test: NCI screening platform one-dose single concentration screening, leukemia CCRF-CEM; assay type: cell-based, human; conditions: 10 μM
EKVX = test: NCI one-dose screening, non-small cell lung cancer EKVX; assay type: cell-based, human; conditions: 10 μM
SF-295 = test: NCI one-dose screening, CNS cancer SF-295; assay type: cell-based, human; conditions: 10 μM
CAKI-1 = test: NCI one-dose screening, renal cancer CAKI-1; assay type: cell-based, human; conditions: 10 μM

O=C1c2ccccc2C(=O)c2c1cc(SCc1ccc(Cl)cc1)c1nsnc21 [C56, 4-(4-chloro-benzylthio)anthra[2,1-c] [1,2,5]thiadiazol-6,11-dione]
IC50 [1]: > 15 µM | Growth Percent HL-60(TB) (HL-60, TB): 57.42% | Growth Percent MOLT-4 (MOLT-4): 22.72% | Growth Percent SR (SR): 63.73% | Growth Percent RPMI-8226 (PRMI-8226 cell line): 86.78% | Growth Percent K562 (K562cell line): 67.53% | Growth Percent HOP-62 (HOP-62): 89.15% | Growth Percent NCI-H226 (NCI-H226): 82.14% | Growth Percent NCI-H23 (NCI-H23): 82.13% | Growth Percent NCI-H322M (NCI-H322M): 94.10% | Growth Percent NCI-H460 (NCI-H460): 104.55% | Growth Percent NCI-H522 (NCI-H522): 82.61% | Growth Percent A549/ATCC (A549/ATCC): 100.62% | Growth Percent COLO 205 (COLO 205): 99.94% | Growth Percent HCC-2998 (HCC-2998): 102.54% | Growth Percent HCT-116 (HCT-116): 114.73% | Growth Percent HCT-15 (HCT-15): 97.91% | Growth Percent KM12 (KM12): 105.46% | Growth Percent HT29 (HT29): 96.41% | Growth Percent SF-268 (SF-268): 107.19% | Growth Percent SF-539 (SF-539): 97.95% | Growth Percent SNB-19 (SNB-19): 104.30% | Growth Percent SNB-75 (SNB-75): 63.35% | Growth Percent U251 (U251): 94.44% | Growth Percent LOX IMVI (LOX IMVI): 86.69% | Growth Percent MALME-3M (MALME-3M): 86.38% | Growth Percent M14 (M14): 126.40% | Growth Percent UACC-62 (UACC-62): 101.52% | Growth Percent UACC-257 (UACC-257): 78.70% | Growth Percent SK-MEL-2 (SK-MEL-2): 109.63% | Growth Percent SK-MEL-28 (SK-MEL-28): 95.35% | Growth Percent SK-MEL-5 (SK-MEL-5): 89.57% | Growth Percent IGROV1 (IGROV1): 84.25% | Growth Percent OVCAR-3 (OVCAR-3): 113.46% | Growth Percent OVCAR-4 (OVCAR-4): 84.19% | Growth Percent OVCAR-5 (OVCAR-5): 104.48% | Growth Percent OVCAR-8 (OVCAR-8): 94.19% | Growth Percent 786-0 (786-O): 117.98% | Growth Percent ACHN (ACHN): 94.35% | Growth Percent SN12C (SN12C): 93.61% | Growth Percent TK-10 (TK-10): 121.91% | Growth Percent RXF 393 (RXF, 393): 104.79% | Growth Percent NCI/ADR-RES (NCl/ADR-RES): 95.73% | melting point: 261 to 262 °C

Cc1ccccc1Nc1cc2c(c3nsnc13)C(=O)c1ccccc1C2=O [C61, 4-(o-tolylamino)anthra[2,1-c][1,2,5] thiadiazol-6,11-dione]
IC50 [1]: 0.21 µM | Growth Percent CCRF-CEM (CCRF-CEM): 17.83% | Growth Percent HL-60(TB) (HL-60, TB): 1.11% | Growth Percent MOLT-4 (MOLT-4): −11.92% | Growth Percent SR (SR): −15.27% | Growth Percent RPMI-8226 (PRMI-8226 cell line): 16.20% | Growth Percent K562 (K562cell line): 16.97% | Growth Percent EKVX (EKVX): 62.56% | Growth Percent HOP-62 (HOP-62): 40.78% | Growth Percent NCI-H226 (NCI-H226): 47.00% | Growth Percent NCI-H23 (NCI-H23): 37.57% | Growth Percent NCI-H322M (NCI-H322M): 64.54% | Growth Percent NCI-H460 (NCI-H460): 11.85% | Growth Percent NCI-H522 (NCI-H522): 12.41% | Growth Percent A549/ATCC (A549/ATCC): 27.13% | Growth Percent COLO 205 (COLO 205): 83.39% | Growth Percent HCC-2998 (HCC-2998): 57.61% | Growth Percent HCT-116 (HCT-116): 24.23% | Growth Percent HCT-15 (HCT-15): 28.74% | Growth Percent KM12 (KM12): 40.14% | Growth Percent HT29 (HT29): 52.64% | Growth Percent SF-268 (SF-268): 39.57% | Growth Percent SF-295 (SF-295): 34.71% | Growth Percent SF-539 (SF-539): 47.90% | Growth Percent SNB-19 (SNB-19): 61.89% | Growth Percent SNB-75 (SNB-75): 43.18% | Growth Percent U251 (U251): 19.18% | Growth Percent LOX IMVI (LOX IMVI): 8.17% | Growth Percent MALME-3M (MALME-3M): 64.72% | Growth Percent M14 (M14): 61.89% | Growth Percent UACC-62 (UACC-62): 57.68% | Growth Percent UACC-257 (UACC-257): 33.79% | Growth Percent SK-MEL-2 (SK-MEL-2): 32.64% | Growth Percent SK-MEL-28 (SK-MEL-28): 53.13% | Growth Percent SK-MEL-5 (SK-MEL-5): 8.03% | Growth Percent IGROV1 (IGROV1): 25.29% | Growth Percent OVCAR-3 (OVCAR-3): 22.37% | Growth Percent OVCAR-4 (OVCAR-4): −5.69% | Growth Percent OVCAR-5 (OVCAR-5): 79.06% | Growth Percent OVCAR-8 (OVCAR-8): 22.87% | Growth Percent 786-0 (786-O): 63.62% | Growth Percent CAKI-1 (CAKI-1): 27.55% | Growth Percent ACHN (ACHN): 38.07% | Growth Percent SN12C (SN12C): 46.94% | Growth Percent TK-10 (TK-10): 63.75% | Growth Percent RXF 393 (RXF, 393): 45.35% | Growth Percent NCI/ADR-RES (NCl/ADR-RES): 28.36% | melting point: 177 to 178 °C
